# Structures can show the parent of a compound that is named as a salt. Where two headings read alike, the source gives them in different places.
# How the values were obtained:
# T1R1/T1R3 receptor [1] = target: T1, T1R1/T1R3 receptor (Felis catus, UniProt E3UMS2); format: cell-based; details: for EC50 +buffer (alone): compound alone in buffer; for Activity: overall call for modulation of T1R1/T1R3: active or N/A (= Not active)
# Text: HEK293 cells that stably express T1R3 and inducibly express T1R1 were exposed to transmembrane compounds alone or in combination with one or more amino acids and/or one or more nucleotides to activate the umami receptor. Activation of the T1R1/T1R3 receptor was detected by a change in intracellular calcium levels using a calcium sensitive fluorescent dye. Cells that express T1R3 but not T1R1 were used as a control. A FLIPR® Tetra or a FlexStation® 3 was used for data capture.
# In each experiment, serial dilutions of up to 10 mM of the transmembrane compound were added to the T1R1/T1R3-expressing cells.
# T1R1/T1R3 receptor [2] = target: T1, T1R1/T1R3 receptor; experiment: Example 8: agonist screening of transmembrane compounds on T1R1/T1R3 in HEK293 cells; format: cell-based, cat; details: for agonist profile assessment: transmembrane compound alone, in words; for T1R1/T1R3 agonist: transmembrane compound tested at 0.01, 0.1 and 1 mM, HEK293 cells expressing T1R1/T1R3, calcium dye and/or luminescent reporter
# Protocol: HEK293 cells that stably express T1R3 and inducibly express T1R1 were exposed to a transmembrane compound. Activation of the T1R1/T1R3 receptor was detected by a change in intracellular calcium levels using a calcium sensitive fluorescent dye and/or a luminescent reporter system. […] A FLIPR® Tetra or a FlexStation® 3 was used for data capture.
# Each transmembrane compound was tested at concentrations of 0.01 mM, 0.1 mM, and 1 mM. […] To generate the dose response curves, the transmembrane compound was tested at concentrations of between 0.0001 mM and 1.0 mM in the presence of GMP and Ala.
# T1R1/T1R3 receptor [3] = target: T1, T1R1/T1R3 receptor; experiment: Example 8: PAM screening of transmembrane compounds with GMP and Ala on T1R1/T1R3 in HEK293 cells; format: cell-based, cat; details: for PAM profile assessment: in the presence of GMP and Alanine, in words; for T1R1/T1R3 PAM: compound at 0.01, 0.1, 1 mM in combination with GMP+Ala mixtures (T1-T4), PAM if response to the combination is greater than the sum of the responses to compound alone and to GMP+Ala alone
# Text: HEK293 cells that stably express T1R3 and inducibly express T1R1 were exposed to transmembrane compound alone or in combination with Ala and GMP to activate the umami receptor. Activation of the T1R1/T1R3 receptor was detected by a change in intracellular calcium levels using a calcium sensitive fluorescent dye and/or a luminescent reporter system. […] A FLIPR® Tetra or a FlexStation® 3 was used for data capture.
# Dose response curves were generated for each transmembrane compound at concentrations of 0 (buffer only), 0.01, 0.1 and 1 mM, wherein each of the three concentrations of transmembrane compound was tested in combination with 0.03 mM GMP+100 mM Ala (T1); 0.6 mM GMP+10 mM Ala (T2); 0.1 mM GMP+60 mM Ala (T3) and 0.3 mM GMP+60 mM Ala (T4). The T4 mixture was also tested in a 2-fold dilution series (the T4(X) Concentration). In these experiments, the first test concentration was 2× (2 times) the T4 concentration. The subsequent test concentrations were 2-fold dilutions from that (1×, 0.5× etc.). This dilution series was tested with or without the addition of the test compound at a constant 0.3 mM concentration.
# Activation of the umami receptor was also determined in the presence of 1 mM GMP+100 mM Ala to generate a “maximum” umami receptor activation level.
# cat T1R1/T1R3 receptor = cat T1R1/T1R3 receptor (Felis catus, UniProt E3UMS2); experiment: cell-based
# Text: HEK293 cells that stably express T1R3 and inducibly express T1R1 were exposed to nucleotide derivatives alone or in combination with one or more amino acids and/or one or more nucleotides to activate the umami receptor. Activation of the T1R1/T1R3 receptor was detected by a change in intracellular calcium levels using a calcium sensitive fluorescent dye and/or a luminescent reporter system. Cells that express T1R3 but not T1R1 were used as a control. A FLIPR® Tetra or a FlexStation® 3 was used for data capture.
# [4] = threshold in the presence of 0.2 mM IMP, CNBD = Could not be determined
# [5] = in the presence of 0.2 mM IMP, CNBD = Could not be determined
structure (smiles),measurement,setting,value
CC(C)CC(NC(=O)c1ccccc1)C(N)=O (racemic),Thres +IMP (0.2 mM),T1R1/T1R3 receptor [1]; [4],0.1 mM
"O=C1CC(=O)N(Cc2ccccc2)C(=O)N1Cc1ccccc1 [1,3-dibenzylpyrimidine-2,4,6(1H,3H,5H)-trione]",Thres +IMP (0.2 mM),T1R1/T1R3 receptor [1]; [4],0.1 mM
same,agonist profile assessment,T1R1/T1R3 receptor [2],agonist activity
"O=C(CN1C(=O)C(=O)N(Cc2ccccc2)C1=O)c1ccc(Cl)s1 [1-benzyl-3-(2-(5-chlorothiophen-2-yl)-2-oxoethyl)imidazolidine-2,4,5-trione]",PAM profile assessment,T1R1/T1R3 receptor [3],PAM activity
"O=C(O)C1CCCCC1C(=O)Nc1cc(Cl)cc(Cl)c1 (centres unmarked) [2-((3,5-dichlorophenyl)carbamoyl)cyclohexanecarboxylic acid]",Thres +IMP (0.2 mM),T1R1/T1R3 receptor [1]; [4],0.03 mM
Nc1ccccc1C(=O)NCCc1ccccc1 [2-amino-N-phenethylbenzamide],Thres +IMP (0.2 mM),T1R1/T1R3 receptor [1]; [4],0.01 mM
CC(=O)Nc1ccc(C(=O)Nc2cc(-c3ccccc3)nn2CCO)cc1 [4-acetamido-N-(1-(2-hydroxyethyl)-3-phenyl-1H-pyrazol-5-yl)benzamide],EC50 +Alanine (20 mM),T1R1/T1R3 receptor [1],CNBD
same,Thres +Alanine (20 mM),T1R1/T1R3 receptor [1],CNBD
same,EC50 +buffer (alone),T1R1/T1R3 receptor [1]; CNBD = Could not be determined,CNBD
same,Thres +IMP (0.2 mM),T1R1/T1R3 receptor [1]; [4],CNBD
"CCCCc1nn(CC(=O)N2CCCC2)c(=O)n1Cc1ccccc1 [4-benzyl-3-butyl-1-(2-oxo-2-(pyrrolidin-1-yl)ethyl)-1H-1,2,4-triazol-5(4H)-one]",Thres +IMP (0.2 mM),T1R1/T1R3 receptor [1]; [4],0.1 mM
O=P(O)(O)OP(=O)(O)OP(=O)(O)OC[C@H]1O[C@@H](n2cnc3c(Cl)ncnc32)[C@H](O)[C@@H]1O [6-Chloropurine riboside-5′-O-triphosphate],Thres +Alanine (20 mM),T1R1/T1R3 receptor [1],0.01 mM
same,Activity,T1R1/T1R3 receptor [1],active
same,Thres +IMP (0.2 mM),T1R1/T1R3 receptor [1]; [4],0.003 mM
Nc1nc2c(ncn2[C@@H]2O[C@H](COP(=O)(O)OP(=O)(O)O)[C@@H](O)[C@H]2O)c(=S)[nH]1 [6-Thioguanosine-5′-O-diphosphate],EC50 +buffer (alone),T1R1/T1R3 receptor [1]; CNBD = Could not be determined,CNBD
same,EC50 +IMP (0.2 mM),T1R1/T1R3 receptor [1]; [5],CNBD
same,Max resp ΔF/F +IMP (0.2 mM),T1R1/T1R3 receptor [1]; [5],0.0720 ΔF/F
same,Thres +IMP (0.2 mM),T1R1/T1R3 receptor [1]; [4],CNBD
COC(=O)[C@H](CC(C)C)NCc1ccccc1.Cl [Benzyl-L-leucine methyl ester hydrochloride],PAM profile assessment,T1R1/T1R3 receptor [3],PAM activity
same,agonist profile assessment,T1R1/T1R3 receptor [2],agonist
"O=C[C@H](O)[C@@H](O)[C@H](O)[C@H](O)CO [D-Glucose, reference compound]",EC50 +buffer (alone),T1R1/T1R3 receptor [1]; CNBD = Could not be determined,CNBD
"O=C(CN1C(=O)C(=O)N(Cc2ccccc2)C1=O)c1ccccc1 [Formula 1, 1-benzyl-3-(2-oxo-2-phenylethyl)imidazolidine-2,4,5-trione]",T1R1/T1R3 PAM,T1R1/T1R3 receptor [3],No
same,T1R1/T1R3 agonist,T1R1/T1R3 receptor [2],No
"O=C(CN1C(=O)C(=O)N(Cc2ccccc2)C1=O)c1ccc2c(c1)CCC2 [Formula 2, 1-benzyl-3-(2-(2,3-dihydro-1H-inden-5-yl)-2-oxoethyl)imidazolidine-2,4,5-trione]",T1R1/T1R3 PAM,T1R1/T1R3 receptor [3],No
same,T1R1/T1R3 agonist,T1R1/T1R3 receptor [2],No
"O=C(CN1C(=O)C(=O)N(Cc2ccccc2)C1=O)c1ccc(Br)cc1 [Formula 3, 1-benzyl-3-(2-(4-bromophenyl)-2-oxoethyl)imidazolidine-2,4,5-trione]",T1R1/T1R3 PAM,T1R1/T1R3 receptor [3],No
same,T1R1/T1R3 agonist,T1R1/T1R3 receptor [2],No
"O=C(CN1C(=O)C(=O)N(Cc2ccccc2)C1=O)c1ccc2c(c1)OCCO2 [Formula 4, 1-benzyl-3-(2-(2,3-dihydrobenzo[b][1,4]dioxin-6-yl)-2-oxoethyl)imidazolidine-2,4,5-trione]",T1R1/T1R3 PAM,T1R1/T1R3 receptor [3],No
same,T1R1/T1R3 agonist,T1R1/T1R3 receptor [2],No
"COc1ccc(C(=O)CN2C(=O)C(=O)N(Cc3ccccc3)C2=O)c(OC)c1 [Formula 5, 1-benzyl-3-(2-(2,4-dimethoxyphenyl)-2-oxoethyl)imidazolidine-2,4,5-trione]",T1R1/T1R3 PAM,T1R1/T1R3 receptor [3],No
same,T1R1/T1R3 agonist,T1R1/T1R3 receptor [2],No
"C[C@H](N)C(=O)O [L-Alanine, reference compound]",Thres +IMP (0.2 mM),T1R1/T1R3 receptor [1]; [4],3.0 mM
"N[C@@H](CS)C(=O)O [L-Cysteine, cysteine]",Max resp ΔF/F +IMP (0.2 mM),T1R1/T1R3 receptor [1]; [5],0.5800 ΔF/F
same,Thres +IMP (0.2 mM),T1R1/T1R3 receptor [1]; [4],10.0 mM
"N[C@@H](Cc1c[nH]cn1)C(=O)O [L-Histidine, L-histidine]",Thres +IMP (0.2 mM),T1R1/T1R3 receptor [1]; [4],10.0 mM
"N[C@@H](Cc1ccccc1)C(=O)O [L-Phenylalanine, reference compound]",Max resp ΔF/F +IMP (0.2 mM),T1R1/T1R3 receptor [1]; [5],0.5900 ΔF/F
same,Thres +IMP (0.2 mM),T1R1/T1R3 receptor [1]; [4],0.1 mM
"O=C(O)[C@@H]1CCCN1 [L-Proline, proline]",EC50 +IMP (0.2 mM),T1R1/T1R3 receptor [1],CNBD
same,Max resp % of Ala +IMP (0.2 mM),T1R1/T1R3 receptor [1],CNBD
same,Max resp ΔF/F +IMP (0.2 mM),T1R1/T1R3 receptor [1],CNBD
same,Thres +IMP (0.2 mM),T1R1/T1R3 receptor [1],CNBD
"N[C@@H](CO)C(=O)O [L-Serine, serine]",Thres +IMP (0.2 mM),T1R1/T1R3 receptor [1]; [4],3.0 mM
"N[C@@H](Cc1c[nH]c2ccccc12)C(=O)O [L-Tryptophan, tryptophan]",Thres +IMP (0.2 mM),T1R1/T1R3 receptor [1]; [4],0.1 mM
"N[C@@H](Cc1ccc(O)cc1)C(=O)O [L-Tyrosine, tyrosine]",Thres +IMP (0.2 mM),T1R1/T1R3 receptor [1]; [4],3.0 mM
"N[C@@H](CCC(=O)O)C(=O)[O-].[Na+] [MSG (Glutamic acid sodium salt), monosodium glutamate]",EC50 +IMP (0.2 mM),T1R1/T1R3 receptor [1]; [5],CNBD
same,Max resp ΔF/F +IMP (0.2 mM),T1R1/T1R3 receptor [1]; [5],CNBD
same,Max resp % of Ala +IMP (0.2 mM),"T1R1/T1R3 receptor [1]; in the presence of 0.2 mM IMP, relative to Ala, CNBD = Could not be determined",CNBD
same,Thres +IMP (0.2 mM),T1R1/T1R3 receptor [1]; [4],CNBD
"O=C(NCCCCNC(=O)c1cccnc1)c1cccnc1 [N,N′-(butane-1,4-diyl)dinicotinamide]",EC50 +Alanine (20 mM),T1R1/T1R3 receptor [1],CNBD
same,EC50 +buffer (alone),T1R1/T1R3 receptor [1]; CNBD = Could not be determined,CNBD
same,Thres +IMP (0.2 mM),T1R1/T1R3 receptor [1]; [4],0.1 mM
"O=C(NCCc1c[nH]c2ccccc12)c1cccnc1 [N-(2-(1H-indol-3-yl)ethyl)nicotinamide, N-(2-(1H-Indol-3-yl)ethyl)nicotinamide]",Thres +IMP (0.2 mM),T1R1/T1R3 receptor [1]; [4],0.003 mM
O=C(NCCc1ccccc1)c1ccccc1 [N-phenethylbenzamide],Max resp ΔF/F +IMP (0.2 mM),T1R1/T1R3 receptor [1]; [5],0.9800 ΔF/F
same,Thres +IMP (0.2 mM),T1R1/T1R3 receptor [1]; [4],0.01 mM
"O=C(NCCc1ccccc1)c1ccc2c(c1)OCO2 [N-phenethylbenzo[d][1,3]dioxole-5-carboxamide]",EC50 +Alanine (20 mM),T1R1/T1R3 receptor [1],CNBD
same,Thres +IMP (0.2 mM),T1R1/T1R3 receptor [1]; [4],0.01 mM
O=C(NCCc1ccccc1)c1cccnc1 [N-phenethylnicotinamide],Thres +IMP (0.2 mM),T1R1/T1R3 receptor [1]; [4],0.03 mM
"C=C[C@H]1C[N@@]2CC[C@H]1C[C@H]2[C@H](O)c1ccnc2ccc(OC)cc12 [Quinine HCL, reference compound]",EC50 +buffer (alone),T1R1/T1R3 receptor [1]; CNBD = Could not be determined,CNBD
"CCOC(=O)NC(=O)C(c1ccccc1)c1ccccc1 [Ro 01-6128, reference compound]",Thres +Alanine (20 mM),T1R1/T1R3 receptor [1],0.3 mM
same,Activity,T1R1/T1R3 receptor [1],active
same,Thres +IMP (0.2 mM),T1R1/T1R3 receptor [1]; [4],0.01 mM
"O=c1[nH]c(=O)c2ncn([C@@H]3O[C@H](COP(=O)(O)O)[C@@H](O)[C@H]3O)c2[nH]1 [xanthosine monophosphate, reference compound]",Thres,cat T1R1/T1R3 receptor,0.025 mM
